Laboratory results as given in BindingDB's records for doi:10.1016/s0960-894x(01)00814-9 (Friedrich-Alexander University, 2002).

Target: 5-hydroxytryptamine receptor 1A (Sus scrofa)
Assay: Compound was tested in vitro for its ability to compete with [3H]8-OH-DPAT at 5-hydroxytryptamine 1A receptor in porcine brain homogenate

- Ki: 2200 nM
Structure (SMILES): N#Cc1cccc2c(CN3CCN(c4ccc(Cl)cc4)CC3)cnn12 [3-[4-(4-Chloro-phenyl)-piperazin-1-ylmethyl]-pyrazolo[1,5-a]pyridine-7-carbonitrile]
